From a melting point compilation (Tetko et al.; mined from patent text by program, amines drawn as free bases though some values may be those of a salt)

For `CC(=NNC(=O)c1cccc([N+](=O)[O-])c1O)c1ccccc1`, the melting point was 163 to 168 °C.
For `COc1c(OC)c(O)c2c(=O)c3ccc(O)c(OC)c3[nH]c2c1OC`, the melting point was 214 to 215 °C.
In the case of `CCCc1c(OCCCCCc2ccc3cc(OC)c(OC)cc3c2)ccc(C(=O)O)c1O`, the melting point is reported as 135 to 137 °C.
With `CCc1cc(O)n2ncnc2n1` the melting point was 212 °C.
In the case of `O=C(Nc1cc(C(F)(F)F)cc2ncn(-c3ccccc3)c12)c1ccccc1`, the melting point is reported as 152 to 155 °C.
With `CS(=O)(=O)Oc1cc([N+](=O)[O-])c(F)cc1Cl` the melting point was 64 to 65.5 °C.
For `O=Cc1cc([N+](=O)[O-])c(Cl)cc1Cl`, the melting point was 61 to 63 °C.
With `O=C(NCC12CC3CC(CC(C3)C1)C2)c1cccnc1Sc1cc(O)ccc1O` the melting point was 108 to 110 °C.
In the case of `Cc1nc(NCc2ccc(C)o2)c2nc(-c3ccccc3)cc-2[nH]1`, the melting point is reported as 125 to 128 °C.
For `CCOC(=O)c1sc(Cl)nc1C(F)(F)F`, the melting point was 58 to 59 °C.
`COc1cc(Nc2c(C#N)cnc3cc(-c4cccc(CN5CCOCC5)c4)ccc23)c(Cl)cc1Cl` showed a melting point of 88 to 91 °C.
For `C=CCN(CC=C)Cc1c(-c2ccccc2)sc(N)c1C(=O)c1ccc(Cl)cc1`, the melting point was 155 to 156 °C.
Compound `Oc1ccc(C(c2ccc(O)cc2)c2cccc3ccccc23)cc1` has a melting point of 109 to 111 °C.
`CN1CCC(Oc2c(F)c(F)c(F)c(F)c2F)(c2ccc(C(F)(F)F)cc2)CC1` showed a melting point of 45 to 48 °C.
Work on `O=[N+]([O-])c1ccc(CSCc2c[nH]cn2)cc1` yielded a melting point of 88 °C.
`O=C1CC(c2cccc(-n3ccnc3)c2)=Nc2cc(CO)c(C#Cc3ccccc3)cc2N1` showed a melting point of 227 °C.
Work on `CC(C)c1cc(C(=O)O)c(N)c(C(C)C)c1` yielded a melting point of 114 to 116 °C.
Compound `CCC(C)Nc1c(C(F)(F)F)cc([N+](=O)[O-])c(Cl)c1[N+](=O)[O-]` (stereo not given) has a melting point of 90.5 to 91.5 °C.
Compound `CCc1[nH]n(C2CCCC2)c2nc(Cc3ccc([N+](=O)[O-])cc3)nc(=O)c1-2` has a melting point of 221 to 223 °C.
Compound `Nc1sc2c(c1C(=O)c1ccc(Br)c3ccccc13)CCC2` has a melting point of 210 to 212 °C.
`CC(C)CN1C(=O)c2cnc(-c3ccccc3)nc2N(C(=O)CN2CCCCC2)c2ccccc21` showed a melting point of 193 to 194 °C.
`CC(C)C(O)c1cc2ccncc2[nH]1` (stereo not given) gave a melting point of 140 to 144 °C.
Compound `COC(=O)C1CSCC1=O` (stereo not given) has a melting point of 51 °C.
With `N#Cc1cnn(C2CCCCC2)c1N` the melting point was 99 to 103 °C.
Work on `COc1ccn2c(Cl)c(CCc3ccc4nc(N)oc4c3)nc2c1` yielded a melting point of 225 to 227 °C.
With `OC1CCc2c(-c3cccs3)cccc21` (stereo not given) the melting point was 101 to 104 °C.
`Cc1c(N2CCC(C(N)c3cccnc3)C2)c(F)c(N)c2c(=O)c(C(=O)O)cn(C3CC3F)c12` (stereo not given) gave a melting point of 213 to 215 °C.
`O=C(O)CCC(=O)CCS` gave a melting point of 40 to 42 °C.
`CCCOc1ncc(I)cc1C(=O)Nc1c(CC)nn(CCN2CCOCC2)c1C(N)=O` showed a melting point of 180 °C.
In the case of `CC(C)c1ccc2nc3ccc(C(=O)NCCc4cccnc4)cn3c(=O)c2c1`, the melting point is reported as 283 to 292 °C.
Work on `CCOC(=O)c1oc2cc(Br)ccc2c1C` yielded a melting point of 55 to 56 °C.
For `Nc1nc(N)nc(-c2ccc(-c3ccccc3)c3ccccc23)n1`, the melting point was 239 to 240 °C.
Work on `COc1ccc(-n2nc(Cl)cc2-c2ccc(S(C)(=O)=O)cc2)cc1C#N` yielded a melting point of 191 to 194 °C.
Compound `O=P(Cc1ccccc1O)(c1ccccc1)c1ccccc1` has a melting point of 179 °C.
`CN1CC(CCCCN2CCN(c3ccccc3)CC2)OC1=O` (stereo not given) showed a melting point of 85 to 88 °C.
`NNc1cc(-c2ccnc(Nc3cccc(Cl)c3)n2)ccn1` gave a melting point of 201 to 203 °C.
For `O=C1Nc2ccccc2C(c2ccccc2)N1CCO` (stereo not given), the melting point was 141 °C.
Compound `Nc1ncnc2c1c(-c1cccc(O)c1)nn2Cc1oc2ccccc2c(=O)c1-c1cccc(F)c1` has a melting point of 280 to 283 °C.
Work on `Cc1[nH]c2ccc(CCN3CCCC3)cc2c1C(=O)OCc1ccccc1` yielded a melting point of 76 to 78 °C.
Compound `C=CCc1c(OCCCOc2ccc3c(c2)OC(C(=O)O)CC3)ccc(C(C)=O)c1OC` (stereo not given) has a melting point of 85.5 °C.
For `O=C(O)CCCS(=O)(=O)c1ccccc1`, the melting point was 94 to 95 °C.
For `O=C(c1cccnc1)N1CCCC(c2ccccc2)=N1`, the melting point was 84 to 86 °C.
`CCN1c2ccc(Cl)cc2C=C(C(=O)O)C1C(F)(F)F` (stereo not given) showed a melting point of 201 to 202 °C.
Compound `O=C(Nc1ccc2[nH]ccc2c1)c1ccc(F)cc1` has a melting point of 205 to 207 °C.
In the case of `CC(=O)NCC1CN(c2ccc(NC=O)c(F)c2)C(=O)O1` (stereo not given), the melting point is reported as 196 to 198 °C.
Work on `CC(=O)SCC(Cc1ccccc1)C(=O)Nc1ccc(C(=O)O)cc1` (stereo not given) yielded a melting point of 187 to 189 °C.
`CC1(C)C(=O)Nc2ccc(-c3cc(F)cc(Cl)c3)cc21` gave a melting point of 206 to 207 °C.
For `N#Cc1cc2c(cc1O)OCC21C(=O)N(CC2CCCO2)c2ccccc21` (stereo not given), the melting point was 218 to 221 °C.
Compound `COc1ncnc(-c2cc([N+](=O)[O-])c(F)cc2F)c1C` has a melting point of 114 to 117 °C.
With `COc1cc(C(F)(F)F)sc1CN1C(=O)C2(COc3cc4c(cc32)OCO4)c2ccccc21` (stereo not given) the melting point was 178 to 180 °C.
